What was measured:
guanylate cyclase [1] = biological target: T1, guanylate cyclase (Oryctolagus cuniculus, UniProt G1TXB5); test: rANP activation of membrane-bound guanylate cyclase in purified cerebral microvessels; type: biochemical; design: tissues were homogenized (10 mg wet weight per milliliter); from tissue; host or cells: rabbit cerebral microvessels, choroid plexus, kidney, ciliary process, pia-arachnoid, cerebellum; 100,000 g P1 pellet; conditions: purified rabbit cerebral microvessels, Fig. 1a
T1 sequence (G1TXB5 28-1056): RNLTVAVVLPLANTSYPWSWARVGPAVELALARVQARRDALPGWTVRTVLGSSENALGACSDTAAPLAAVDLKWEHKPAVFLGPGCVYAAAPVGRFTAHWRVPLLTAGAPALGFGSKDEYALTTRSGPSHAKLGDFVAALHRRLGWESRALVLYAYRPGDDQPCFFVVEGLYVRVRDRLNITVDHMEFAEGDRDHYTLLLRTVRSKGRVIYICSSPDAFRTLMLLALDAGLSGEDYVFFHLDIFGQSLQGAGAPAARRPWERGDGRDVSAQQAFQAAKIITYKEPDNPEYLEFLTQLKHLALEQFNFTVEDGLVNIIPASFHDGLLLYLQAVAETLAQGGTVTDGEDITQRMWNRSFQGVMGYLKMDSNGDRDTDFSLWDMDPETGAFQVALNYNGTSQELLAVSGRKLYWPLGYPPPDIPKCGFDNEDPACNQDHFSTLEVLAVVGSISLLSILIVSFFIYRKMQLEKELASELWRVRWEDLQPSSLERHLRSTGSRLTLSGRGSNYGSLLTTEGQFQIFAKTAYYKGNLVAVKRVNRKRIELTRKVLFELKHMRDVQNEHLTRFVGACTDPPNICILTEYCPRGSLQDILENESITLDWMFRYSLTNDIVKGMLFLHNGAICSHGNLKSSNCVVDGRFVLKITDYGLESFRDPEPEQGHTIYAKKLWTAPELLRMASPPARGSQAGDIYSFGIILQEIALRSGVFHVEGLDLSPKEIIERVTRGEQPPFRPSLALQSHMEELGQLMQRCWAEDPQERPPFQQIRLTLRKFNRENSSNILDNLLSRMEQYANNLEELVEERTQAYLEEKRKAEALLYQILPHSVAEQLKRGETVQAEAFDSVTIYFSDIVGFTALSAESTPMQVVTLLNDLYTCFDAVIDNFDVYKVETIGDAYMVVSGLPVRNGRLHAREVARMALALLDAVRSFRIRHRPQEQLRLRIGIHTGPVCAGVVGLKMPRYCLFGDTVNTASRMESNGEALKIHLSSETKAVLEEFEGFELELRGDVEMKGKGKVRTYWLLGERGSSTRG
Method: (§1) The effect of rANP on membrane-bound guanylate cyclase and adenylate cyclase activity in various brain-barrier tissues and tissue fractions from rabbit was compared with its activity in cerebrum and cerebellum. Guanylate cyclase was measured as the rate of cyclic GMP formation by modifications of the technique of Waldman et al., supra, incorporated herein by reference. Briefly, tissues were homogenized (10 mg wet weight per milliliter) in 50 mM tris-HCl, pH 8.0, 1 mM EDTA, 1 mM dithiothreitol, and 250 mM sucrose and centrifuged at 100,000g to obtain a P1 pellet. Reaction tubes contained (in 0.3 ml), 50 mM tris, pH 7.6, 6 mM MnCl₂, 0.5 mM 3-isobutyl, 1-methylxanthine (IBMX), 10 mM theophylline, 3 mM GTP, hormone (in 0.03 ml containing 2.5 mM ascorbic acid and 0.1% bovine serum albumin), and 0.06 ml of P1 fraction (40 to 60 ug of protein). The reaction (4 minutes at 30°C) was started by addition of GTP and terminated by addition of 0.3 ml of 150 mM sodium acetate (pH 4.0) and boiling for 3 minutes. Cyclic GMP formed was subsequently measured by radioimmunoassay as described in example 6, infra. Under these conditions, guanylate cyclase activity was linear with time and tissue concentration. Adenylate cyclase activity in P1 fractions was measured according to the method described by Nathanson, et al., Science; 204:843 (1979); Mol. Pharmacol. 18:199 (1980), see Figure 1C . […] Neurosci. […]

choroid epithelial cells = test: Intracellular cyclic GMP content of isolated choroid epithelial cells; type: cell-based, rabbit; conditions: 5 minutes incubation; 1 uM rANP; PDE inhibitors theophylline (10 mM) and IBMX (0.5 mM)
Method: The effect of rANP on membrane-bound guanylate cyclase and adenylate cyclase activity in various brain-barrier tissues and tissue fractions from rabbit was compared with its activity in cerebrum and cerebellum. Guanylate cyclase was measured as the rate of cyclic GMP formation by modifications of the technique of Waldman et al., supra, incorporated herein by reference. Briefly, tissues were homogenized (10 mg wet weight per milliliter) in 50 mM tris-HCl, pH 8.0, 1 mM EDTA, 1 mM dithiothreitol, and 250 mM sucrose and centrifuged at 100,000g to obtain a P1 pellet. […] Cyclic GMP formed was subsequently measured by radioimmunoassay as described in example 6, infra. […] Adenylate cyclase activity in P1 fractions was measured according to the method described by Nathanson, et al., Science; 204:843 (1979); Mol. Pharmacol. 18:199 (1980), see Figure 1C . […]
Purified secretory epithelial cells were isolated and maintained in tissue culture medium in the absence of any hormones. […] More diffuse staining was found only in epithelium and not in vascular or stromal components of choroid epithelial cells as determined by fluorescein optics. […]
For one experiment, the mean ± range is shown for duplicate determinations, each assayed in triplicate for cyclic GMP content. […] After the cells were incubated for 5 minutes, they were killed and their cyclic GMP content was determined. […]

guanylate cyclase [2] = test: Ciliary process guanylate cyclase activity (Tables 2 and 3); type: biochemical
guanylate cyclase [3] = test: Guanylate cyclase in membrane fractions of cerebral cortex; type: biochemical; conditions: rabbit or pig cerebral cortex membrane fractions
Method: as §1

Ser-Leu-Arg-Arg-atriopeptin III (APIII) [rANP 1-28]
maximum velocity of enzyme activity (Vmax) (guanylate cyclase [1]): 215 % of control | increase in cyclic GMP content (choroid epithelial cells): more than an eightfold increase | CILIARY PROCESS GUANYLATE CYCLASE ACTIVITY (Percent Increase) (guanylate cyclase [2]; Table 2, 10⁻⁶M): 60 ± 27 Percent Increase | CILIARY PROCESS GUANYLATE CYCLASE ACTIVITY (Percent Increase) (guanylate cyclase [2]; Table 3, concentration not given): 74 Percent Increase | stimulation of guanylate cyclase activity (guanylate cyclase [3]): no stimulation
